Data: patent US20250381198A1 (Melt Pharmaceuticals, Inc., priority 2024, published 2025)

Assays:
[1] = test system: subjects undergoing cataract extraction with lens replacement (CELR); assay: Phase 2: treatment-emergent ocular adverse events and serious adverse events; settings: for Cataract operation complication, % / Conjunctivitis bacterial, % / Corneal abrasion, % / Corneal oedema, % / Endophthalmitis, % / Eye disorders, % / Eye pain, % / Foreign body sensation in eyes, % / General disorders and administration site conditions, % / Infections and infestations, % / Injury, poisoning and procedural complications, % / Intraocular pressure increased, % / Investigations, % / Ocular hypertension, % / Pain, % / Paracentesis eye, % / Procedural pain, % / Subjects with Any Treatment-Emergent Ocular AEs, % / Vision blurred, %: Full Analysis Set; for Subjects who experienced a treatment-emergent ocular adverse event, study eye: overall, MELT-300, midazolam alone, ketamine alone
Procedure: The study eye (TABLE 32) non-study eye (TABLE 33), or either eye (TABLE 34) was assessed. TEAES were defined as events that started on or after the date of the study drug administration through the end of Visit 4 or early withdrawal. Subjects with one or more adverse event within a level of Medical Dictionary for Regulatory Activities (MedDRA) were counted only once in that level. […] TEAEs of special interest by system, organ class, and preferred term are provided in TABLE 35 for the full analysis set.

[2] = test system: subjects undergoing cataract extraction with lens replacement (CELR); assay: Phase 3: surgery completion; format: in vivo, human
Excerpt: A plot of the Kaplan-Meier Curve for time to achieve preoperative target sedation level for the all-treated analysis set is provided in FIG. 5.

[3] = test system: subjects undergoing cataract extraction with lens replacement (CELR); assay: Phase 3 MELT-300: procedural sedation responders (primary endpoint); format: in vivo, human; settings: for Procedural sedation responder - n: number of subjects
Procedure: Eligible participants were admitted to the study unit on Day 1.
Participants received study medication 30 (+5) minutes, without food or water, before planned surgery start (defined as instillation of topical ocular anesthetic gel (3 drops of chloroprocaine hydrochloride ophthalmic gel)).
The effectiveness of MELT-300 was evaluated after study medication is administered before surgery, in the course of surgery (intraoperatively), and postoperative on Day 1 (end of surgery defined as just prior to drape removal). Efficacy assessments included assessments of sedation, need for rescue medication for sedation, need for rescue medication for pain, and the ability to complete the surgery.
Achievement of the primary endpoint (i.e., procedural sedation) was evaluated. Success for a procedural sedation responder was defined as a subject that achieved the target sedation level (RSS level 2 or 3) by the start of surgery without the need for rescue sedation medication, no requirement for intraoperative sedation medication, and who was able to complete the surgery.
Treatment differences were tested using a Pearson's chi-square test where a p-value<0.05 indicated a difference, with a Fisher's exact test being used instead if any expected values were <5. […] A supportive stratified analysis was performed using the Cochran-Mantel-Haenszel (CMH) row-mean score test to stratify by site grouping.
This sensitivity analysis utilized the last observation (collected after study drug administration) carried forward method for imputing missing preoperative RSS scores just prior to the start of surgery.

[4] = test system: subjects undergoing cataract extraction with lens replacement (CELR); assay: Phase 3: rescue sedation medication use preoperatively and intraoperatively; format: in vivo, human
Excerpt: A secondary analysis of rescue sedation medication use (both preoperatively and intraoperatively) for the ITT analysis set is shown in TABLE 51.

[5] = Non-Study Eye (as printed in Table 33)
[6] = ITT Analysis Set, number of subjects

CNC1(c2ccccc2Cl)CCCCC1=O (stereo not shown) [Ketamine, 2-(2-chlorophenyl)-2-(methylamino)cyclohexanone]
(7.1) %: Subjects with Any Treatment-Emergent Ocular AEs, % ([1]; Study Eye)
(2.4) %: Infections and infestations, % ([1]; Either Eye)
(0) %: Cataract operation complication, % ([1]; Either Eye) | Corneal abrasion, % ([1]; Either Eye) | Foreign body sensation in eyes, % ([1]; Either Eye) | General disorders and administration site conditions, % ([1]; Either Eye) | Injury, poisoning and procedural complications, % ([1]; Either Eye) | Pain, % ([1]; Either Eye) | Paracentesis eye, % ([1]; Either Eye) | Procedural pain, % ([1]; Either Eye) | Vision blurred, % ([1]; Either Eye) | Paracentesis eye, % [1, 5] | Eye disorders, % ([1]; Non-Study Eye) | Eye pain, % ([1]; Non-Study Eye) | Vision blurred, % ([1]; Non-Study Eye) | Cataract operation complication, % ([1]; Study Eye) | Corneal abrasion, % ([1]; Study Eye) | Foreign body sensation in eyes, % ([1]; Study Eye) | General disorders and administration site conditions, % ([1]; Study Eye) | Injury, poisoning and procedural complications, % ([1]; Study Eye) | Pain, % ([1]; Study Eye) | Procedural pain, % ([1]; Study Eye)
(8.2) %: Subjects with Any Treatment-Emergent Ocular AEs, % ([1]; Either Eye)
(3.5) %: Eye pain, % ([1]; Either Eye) | Eye pain, % ([1]; Study Eye)
(1.2) %: Conjunctivitis bacterial, % ([1]; Either Eye) | Corneal oedema, % ([1]; Either Eye) | Endophthalmitis, % ([1]; Either Eye) | Intraocular pressure increased, % ([1]; Either Eye) | Investigations, % ([1]; Either Eye) | Ocular hypertension, % ([1]; Either Eye) | Conjunctivitis bacterial, % ([1]; Non-Study Eye) | Infections and infestations, % ([1]; Non-Study Eye) | Subjects with Any Treatment-Emergent Ocular AEs, % ([1]; Non-Study Eye) | Corneal oedema, % ([1]; Study Eye) | Endophthalmitis, % ([1]; Study Eye) | Infections and infestations, % ([1]; Study Eye) | Intraocular pressure increased, % ([1]; Study Eye) | Investigations, % ([1]; Study Eye) | Ocular hypertension, % ([1]; Study Eye)
(5.9) %: Eye disorders, % ([1]; Either Eye) | Eye disorders, % ([1]; Study Eye)
7.1%: Subjects who experienced a treatment-emergent ocular adverse event, study eye [1]

Cc1ncc2n1-c1ccc(Cl)cc1C(c1ccccc1F)=NC2 [Midazolam, 8-chloro-6-(2-fluorophenyl)-1-methyl-4H-imidazo[1,5-a][1,4]benzodiazepine]
(3.4) %: Eye pain, % ([1]; Either Eye) | Eye pain, % ([1]; Study Eye)
58: Procedural sedation responder - n ([3]; All-Treated Analysis Set) | Procedural sedation responder - n ([3]; ITT Analysis Set) | Procedural sedation responder - n ([3]; PP Analysis Set)
15: Received intraoperative rescue sedation medication - n [4, 6]
16.9%: Received intraoperative rescue sedation medication - % ([4]; ITT Analysis Set) | Subjects who received intraoperative rescue sedation medication ([4]; ITT analysis set)
(4.6) %: Eye disorders, % ([1]; Study Eye)
16: Received preoperative rescue sedation medication - n [4, 6]
(2.3) %: Intraocular pressure increased, % ([1]; Either Eye) | Investigations, % ([1]; Either Eye) | Intraocular pressure increased, % ([1]; Study Eye) | Investigations, % ([1]; Study Eye)
(8.0) %: Subjects with Any Treatment-Emergent Ocular AEs, % ([1]; Study Eye)
(5.7) %: Eye disorders, % ([1]; Either Eye)
(0) %: Cataract operation complication, % ([1]; Either Eye) | Conjunctivitis bacterial, % ([1]; Either Eye) | Corneal abrasion, % ([1]; Either Eye) | Corneal oedema, % ([1]; Either Eye) | Endophthalmitis, % ([1]; Either Eye) | Foreign body sensation in eyes, % ([1]; Either Eye) | General disorders and administration site conditions, % ([1]; Either Eye) | Infections and infestations, % ([1]; Either Eye) | Pain, % ([1]; Either Eye) | Paracentesis eye, % ([1]; Either Eye) | Paracentesis eye, % [1, 5] | Conjunctivitis bacterial, % ([1]; Non-Study Eye) | Eye pain, % ([1]; Non-Study Eye) | Infections and infestations, % ([1]; Non-Study Eye) | Cataract operation complication, % ([1]; Study Eye) | Corneal abrasion, % ([1]; Study Eye) | Corneal oedema, % ([1]; Study Eye) | Endophthalmitis, % ([1]; Study Eye) | Foreign body sensation in eyes, % ([1]; Study Eye) | General disorders and administration site conditions, % ([1]; Study Eye) | Infections and infestations, % ([1]; Study Eye) | Pain, % ([1]; Study Eye)
89 (100.0) n (%): Completed surgery without intervention due to pain or anxiety ([2]; ITT Analysis Set) | Completed the surgery ([2]; ITT Analysis Set)
(100): Subjects Completed Surgery, % ([2]; Summary of Disposition, value in parentheses, percent of ITT set)
(9.2) %: Subjects with Any Treatment-Emergent Ocular AEs, % ([1]; Either Eye)
8.0%: Subjects who experienced a treatment-emergent ocular adverse event, study eye [1]
18.0%: Received preoperative rescue sedation medication - % ([4]; ITT Analysis Set) | Subjects who received preoperative rescue sedation medication ([4]; ITT analysis set)
65.2%: Procedural sedation responder - % ([3]; All-Treated Analysis Set) | Procedural sedation responder - % ([3]; ITT Analysis Set) | Procedural sedation responders (achieved target sedation) ([3]; ITT analysis set, MELT-300 or 3 mg midazolam sublingual tablet before CELR) | Procedural sedation responder - % ([3]; PP Analysis Set)
(1.1) %: Injury, poisoning and procedural complications, % ([1]; Either Eye) | Ocular hypertension, % ([1]; Either Eye) | Procedural pain, % ([1]; Either Eye) | Vision blurred, % ([1]; Either Eye) | Eye disorders, % ([1]; Non-Study Eye) | Subjects with Any Treatment-Emergent Ocular AEs, % ([1]; Non-Study Eye) | Vision blurred, % ([1]; Non-Study Eye) | Injury, poisoning and procedural complications, % ([1]; Study Eye) | Ocular hypertension, % ([1]; Study Eye) | Procedural pain, % ([1]; Study Eye)
100.0%: Subjects who completed the surgery ([2]; ITT analysis set)
